pIC50: −log10 of the molar value. Counter-ions that a name gives are not always drawn.
Key:
[1] = biological target: T1, myeloperoxidase (Homo sapiens, UniProt P05164); assay: MPO Peroxidation Assay (Amplex Red Assay); type: biochemical; conditions: potency range class, read-out: Amplex Red Assay IC50 value
T1 sequence (P05164 49-745): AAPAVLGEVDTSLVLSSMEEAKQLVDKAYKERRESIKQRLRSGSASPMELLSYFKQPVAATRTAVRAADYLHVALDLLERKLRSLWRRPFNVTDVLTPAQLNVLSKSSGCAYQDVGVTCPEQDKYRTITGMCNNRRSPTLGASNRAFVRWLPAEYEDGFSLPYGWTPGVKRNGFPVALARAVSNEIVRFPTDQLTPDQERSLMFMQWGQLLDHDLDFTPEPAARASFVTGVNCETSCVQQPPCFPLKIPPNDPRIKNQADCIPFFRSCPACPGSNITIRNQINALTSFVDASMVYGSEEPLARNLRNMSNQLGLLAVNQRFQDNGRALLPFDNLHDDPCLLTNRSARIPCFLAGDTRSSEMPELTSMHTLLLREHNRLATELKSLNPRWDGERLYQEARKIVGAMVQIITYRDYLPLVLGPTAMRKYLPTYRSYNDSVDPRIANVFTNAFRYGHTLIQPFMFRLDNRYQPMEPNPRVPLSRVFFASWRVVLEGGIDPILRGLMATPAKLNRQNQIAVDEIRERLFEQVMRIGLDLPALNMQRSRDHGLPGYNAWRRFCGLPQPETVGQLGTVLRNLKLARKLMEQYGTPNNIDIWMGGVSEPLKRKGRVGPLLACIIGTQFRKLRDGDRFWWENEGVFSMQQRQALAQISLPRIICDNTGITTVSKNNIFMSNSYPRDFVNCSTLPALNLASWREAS

[2] = biological target: T1, myeloperoxidase; assay: MPO Chlorination Assay (APF Assay); type: biochemical; conditions: potency range class, read-out: APF Assay IC50 value

Structure (SMILES) | pIC50 [1] | pIC50 [2]
COc1cccc(C(CCN[C@H]2CC[C@H](c3ccccc3)CC2)c2cc(N)nc3[nH]nnc23)c1 (stereo partly drawn) [Example 158, 7-[1-(3-methoxyphenyl)-3-{[(trans)-4-phenylcyclohexyl]amino}propyl]-3H-[1,2,3]triazolo [4,5-b]pyridin-5-amine] | 6.00 to 7.00 | 7.00 to 9.00
Cn1c(C[C@H](c2ccccc2)c2cc(N)nc3[nH]nnc23)nc2c(-c3ccccc3)cccc21 [Example 262, (R)-7-(2-(1-methyl-4-phenyl-1H-benzo[d]imidazol-2-yl)-1-phenylethyl)-3H-[1,2,3]triazolo [4,5-b]pyridin-5-amine] | 5.00 to 6.00 | 5.00 to 6.00
Nc1cc(C(CCN[C@H]2CC[C@H](c3ccccc3)CC2)c2cccc(Cl)c2)c2nn[nH]c2n1 (stereo partly drawn) [Example 162, 7-[1-(3-chlorophenyl)-3-{[(trans)-4-phenylcyclohexyl]amino}propyl]-3H-[1,2,3]triazolo [4,5-b]pyridin-5-amine] | 6.00 to 7.00 | 7.00 to 9.00
Nc1cc(C(CCNCc2ccnc(C(F)(F)F)c2)c2ccccc2)c2nn[nH]c2n1 (stereo not drawn) [Example 62, 7-[1-phenyl-3-({[2-(trifluoromethyl)pyridin-4-yl]methyl}amino)propyl]-3H-[1,2,3]triazolo[4,5-b]pyridin-5-amine] | 6.00 to 7.00 | 6.00 to 7.00
Nc1cc(C(CC(O)CCc2ccccc2)c2ccccc2)c2nn[nH]c2n1 (stereo not drawn) [Example 225, 1-(5-amino-3H-[1,2,3]triazolo[4,5-b]pyridin-7-yl)-1,5-diphenylpentan-3-ol, TFA] | 6.00 to 7.00 | 6.00 to 7.00
Nc1cc(C(CCN[C@H]2CC[C@@H](c3ccncc3)CC2)c2ccccc2)c2nn[nH]c2n1 (stereo partly drawn) [Example 141, 7-(1-phenyl-3-{[(1s,4s)-4-(pyridin-4-yl)cyclohexyl]amino}propyl)-3H-[1,2,3]triazolo [4,5-b]pyridin-5-amine] | 6.00 to 7.00 | 6.00 to 7.00
CC(NCCC(c1ccccc1)c1cc(N)nc2[nH]nnc12)c1ccccc1 (single isomer, unassigned) [Example 12, 7-(1-phenyl-3-((1-phenylethyl)amino)propyl)-3H-[1,2,3]triazolo[4,5-b]pyridin-5-amine] | 6.00 to 7.00 | 6.00 to 7.00
Nc1cc(C(CCC(N)Cc2ccccc2)c2ccccc2)c2nn[nH]c2n1 (stereo not drawn) [Example 235, 7-(4-amino-1,5-diphenylpentyl)-3H-[1,2,3]triazolo[4,5-b]pyridin-5-amine] | 6.00 to 7.00 | 6.00 to 7.00
N#Cc1cc(-c2ccccc2)c2nc(C[C@H](c3ccccc3)c3cc(N)nc4[nH]nnc34)[nH]c2c1 [Example 254, (R)-2-(2-(5-amino-3H-[1,2,3]triazolo [4,5-b]pyridin-7-yl)-2-phenylethyl)-4-phenyl-1H-benzo[d]imidazole-6-carbonitrile] | 5.00 to 6.00 | 7.00 to 9.00
COC(=O)c1cccc(CNCCC(c2ccccc2)c2cc(N)nc3[nH]nnc23)c1 (stereo not drawn) [Example 59, methyl 3-{[(3-{5-amino-3H-[1,2,3]triazolo [4,5-b]pyridin-7-yl}-3-phenylpropyl)amino]methyl} benzoate] | 6.00 to 7.00 | 6.00 to 7.00
CNC(=O)CN(CC[C@H](c1ccccc1)c1cc(N)nc2[nH]nnc12)C12CCC(c3ccccc3)(CC1)CC2 [Example 191, 2-{[(3R)-3-{5-amino-3H-[1,2,3]triazolo [4,5-b]pyridin-7-yl}-3-phenylpropyl]({4-phenylbicyclo[2.2.2]octan-1-yl})amino}-N-methylacetamide] | 6.00 to 7.00 | 7.00 to 9.00
Nc1cc([C@H](CC(=O)NC23CCC(c4ccccc4)(CC2)CC3)c2ccccc2)c2nn[nH]c2n1 [Example 200, (R)-3-(5-amino-3H-[1,2,3]triazolo[4,5-b]pyridin-7-yl)-3-phenyl-N-(4-phenylbicyclo[2.2.2]octan-1-yl)propanamide] | 6.00 to 7.00 | 7.00 to 9.00

— patent publication US11008317B2, “Triazolopyridine inhibitors of myeloperoxidase and/or EPX” (priority 2016, dated 2021)
